A short description of the series: Solubilization test of Poloxamer 188/407 to Aspirin in ethanol. The class given is physicochemical. Conditions: for Amount Dissolved: 10 ml, room temperature (30° C.). How it is done:
(1) 0%,10%, 20%, 30%, 40% (m/v) of Poloxamer 188/407 anhydrous ethanol solution were prepared respectively,10 ml of each solution was added into five sealed centrifuge tubes respectively (each centrifuge tube was numbered accordingly).
(2) Each centrifuge tube was added with adequate amount of Aspirin based on the pre-test data (please refer to Table 1: 0 h data), and shaken to dissolution at room temperature (30° C.).
0.1 g of Aspirin would be added into the tube when complete dissolution was observed, then sealed and continued shaking. In cases which the drug was not dissolved, the previous amount of drug dissolved would be recorded as the maximum amount needed for dissolution.
(4) Dissolution observation was continued until some amount of drug compound could not be dissolved.
(5) The observation of each tube was recorded in Table 1

In the case of `CC(=O)Oc1ccccc1C(=O)O` [Aspirin, acetylsalicylic acid], the “Solubilization Rate” value was 0% (Poloxamer 188 0%); 12% (Poloxamer 188 10%); 20% (Poloxamer 188 20%); 24% (Poloxamer 188 30%); 28% (Poloxamer 188 40%); 0% (Poloxamer 407 0%). Besides, the “Solubilization Rate” value was 12% (Poloxamer 407 10%), 20% (Poloxamer 407 20%), 24% (Poloxamer 407 30%) and 28% (Poloxamer 407 40%). The “Amount Dissolved” value is, setting by setting: (Poloxamer 188 0% (m/v) in anhydrous ethanol) 2.50 g; (Poloxamer 188 10% (m/v) in anhydrous ethanol) 2.80 g; (Poloxamer 188 20% (m/v) in anhydrous ethanol) 3.00 g; (Poloxamer 188 30% (m/v) in anhydrous ethanol) 3.10 g; (Poloxamer 188 40% (m/v) in anhydrous ethanol) 3.20 g; (Poloxamer 407 0% (m/v) in anhydrous ethanol) 2.50 g. The “Amount Dissolved” value reads like this: (Poloxamer 407 10% (m/v) in anhydrous ethanol) 2.80 g; (Poloxamer 407 20% (m/v) in anhydrous ethanol) 3.00 g; (Poloxamer 407 30% (m/v) in anhydrous ethanol) 3.10 g; (Poloxamer 407 40% (m/v) in anhydrous ethanol) 3.20 g. Moreover, under “Poloxamer 188 and 407 anhydrous ethanol”, the “solubility of Aspirin” value is “increases with Poloxamer concentration”.
